In paper PMC10648942, “Safety and pharmacokinetics of SPR206 in subjects with varying degrees of renal impairment” (Antimicrobial Agents and Chemotherapy, 2023):
Like-named read-outs stand apart in the source and are kept apart here. Bridge positions count the residues as written; N and C are the ends. Square brackets hold non-standard residues; d marks the D form. Peptide text beside a SMILES is read from it. * marks the point of attachment. X1 = NC[C@@H](CC(=O)*)c1cccc(Cl)c1; Dab = NCC[C@H](N)C(=O)O; Dap = NC[C@H](N)C(=O)O

What was measured:
[1] = tested on: P. aeruginosa; design: method as in doi:10.1093/ofid/ofac492.1306, doi:10.1093/ofid/ofac492.1307; conditions: P. aeruginosa clinical isolates; cited from earlier work
[2] = cited from earlier work
[3] = tested on: Enterobacterales; design: method as in doi:10.1093/ofid/ofac492.1306, doi:10.1093/ofid/ofac492.1307; conditions: Enterobacterales clinical isolates; cited from earlier work
[4] = tested on: Acinetobacter species; design: method as in doi:10.1093/ofid/ofac492.1306, doi:10.1093/ofid/ofac492.1307; conditions: Acinetobacter species clinical isolates; cited from earlier work
[5] = human, in vivo, cited from earlier work
[6] = design: species or system human; AUC0-8 vs eGFR regression, Coefficient (95% CI) / AUC0-last vs eGFR regression, Intercept / AUC0-last vs eGFR regression, Coefficient (95% CI) / AUC0-∞ vs eGFR regression, Intercept / AUC0-∞ vs eGFR regression, Coefficient (95% CI) / AUC0-8 vs eGFR regression, Intercept: unit not given beside the values; conditions: in vivo
Procedure: To model the relationship between renal function and PK parameters, a linear regression analysis was performed using log-transformed values of AUC0–8, AUC0–last, AUC0–∞, C max, and CL, which were dependent variables. The independent variable to predict the PK parameters was eGFR after adjusting for baseline covariates (age, gender, race, and body weight). Parameter estimates, standard errors, confidence intervals (CIs), and P-values were presented.

[7] = clinical; design: species or system human; AUC0–∞ LS GMR vs healthy subjects, range / AUC0–last LS GMR vs healthy subjects, range / AUC0−8, LS GMR (90% CI): unit not given beside the values; conditions: in vivo
Description: This was a Phase 1, open-label study to assess the safety, tolerability, and PK of a single 100-mg IV dose of SPR206 administered to healthy adults with normal renal function and those with varying degrees of RI including subjects with ESRD on HD. Subjects were screened within 28 days prior to dosing. Study drug administration occurred on day 1 for Cohorts 1–4 (normal renal function, mild RI, moderate RI, and severe RI) and on days 1 and 5 for Cohort 5 (ESRD on HD). Subjects remained confined to the clinical study unit from day −1 (1 day prior to study drug administration) until completion of the scheduled study procedures at the end of confinement on day 4 (Cohorts 1–4) or on day 7 (Cohort 5). A follow-up safety visit occurred 7 to 14 calendar days after the last dose for all subjects.
On the morning of day 1, subjects in Cohorts 1–4 received a single 100-mg IV dose of […] infused over 1 h. Subjects in Cohort 5 received a single IV dose of SPR206 within 2 h (±1 h) after completion of regularly scheduled HD on day 1 (Period 1) and a second dose approximately 1 h prior to their regularly scheduled HD on day 5 (Period 2). Details of the HD procedure are provided in the Supplement.
(§1) Subjects in Cohorts 1–4 had serial blood samples collected to determine plasma SPR206 concentrations at pre-dose (0) and 0.5, 1, 1.25, 1.5, 2, 2.5, 3, 5, 8, 10, 12, 18, 24, and 36 h post-dose. Total voided urine was collected over a 2-h interval from −2 to 0 h (pre-dose) and at 0–4, 4–8, 8–12, 12–24, and 24–36 h post-dose. For subjects in Cohort 5, blood samples were collected on dosing days 1 and 5 pre-dose (0 h) and 0.5, 1, 1.25, 1.5, 2, 2.5, 3, 5, 8, 10, 12, 18, 24, and 36 h after dosing. On day 5 (Period 2), the 1-h post-dose sample was collected immediately prior to initiation of dialysis, and the 5-h post-dose sample was collected 10 min prior to the end of dialysis. The 36-h post-dose samples on days 3 and 7 were collected prior to the next dialysis session if scheduled on the same day. In Period 2, blood samples were collected from both the inflow (arterial) and outflow (venous) lines pre-dialysis and at approximately 1, 2, 3, and 4 h after initiation of HD on day 5. If the HD session was shorter or longer than 4 h after the start of HD, a final sample was collected at the end of dialysis. Plasma and urine samples were assayed for SPR206 using a validated liquid chromatography tandem mass spectrometry method (QPS, LLC, Newark, DE, USA). For plasma, the assay range was 50 to 50,000 ng/mL, and for urine, the range was 100 to 50,000 ng/mL. In plasma, the intraday precision (% coefficient of variation) ranged from 1.3% to 7.7%, and the accuracy (% relative error) ranged from 1.6% to 6.0%. In urine, the intraday precision (% coefficient of variation) ranged from 1.7% to 7.5%, and the accuracy (% relative error) ranged from −4.8% to 7.3%. Additional details are provided in the Supplement.
For all cohorts, the following PK parameters were calculated using noncompartmental methods based on plasma SPR206 concentrations: C max, T max, AUC0−last, AUC0−8, AUC0−∞, terminal elimination half-life (t 1/2), CL, and volume of distribution at the terminal phase (V Z). For Cohort 5, additional parameters were extraction ratio (ER), estimated hemodialysis clearance, and amount of the dose removed by hemodialysis. The ER was calculated as 100 × [(CA − CV)/CA], where CA and CV were predialyzer and postdialyzer paired drug concentrations at the arterial and venous sites. SPR206 clearance during HD (CLHD) was calculated using the following equation: CLHD = Q × ER, where Q was the known blood flow through the dialyzer. The amount of SPR206 removed by dialysis (XHD) was estimated by multiplying the AUC during dialysis [i.e., AUC from the beginning of dialysis to end of dialysis (AUCon–HD)] by CLHD: XHD = AUCon–HD × CLHD.
Mean and individual plasma concentration-time curves were tabulated for each cohort (and for Cohort 5 subjects by period). […]

[8] = Safety/tolerability (TEAEs, laboratory, ECG), Phase 1 renal impairment study; assay type: in vivo, human
[9] = tested on: kidney cell; conditions: cited from earlier work
[10] = human; cited from earlier work
[11] = human, in vivo; cited from earlier work
[12] = design: species or system human; conditions: in vivo
Procedure: as §1, with “Supplement. Urine PK parameters included Aet, Ae%, Aeu, CLR, Fe, and Feu.” for “Supplement.”

[13] = rat, in vivo; cited from earlier work

Compound: colistin
- MIC90 [1]: 1 µg/mL
- route of elimination ([2]; in vivo): eliminated primarily by non-renal mechanisms
- MIC90 [3]: 0.5 µg/mL
- MIC90 [4]: 1 µg/mL

Compound: polymyxin B
- route of elimination [2]: eliminated primarily by non-renal mechanisms

Compound: colistin methanesulfonate
- route of elimination ([2]; in vivo): eliminated predominantly by renal excretion

Compound: CC(C)C[C@@H]1NC(=O)[C@@H](Cc2ccccc2)NC(=O)[C@H](CCN)NC(=O)[C@@H](NC(=O)[C@H](CN)NC(=O)[C@@H](NC(=O)C[C@H](CN)c2cccc(Cl)c2)[C@@H](C)O)CCNC(=O)[C@H]([C@@H](C)O)NC(=O)[C@H](CCN)NC(=O)[C@H](CCN)NC1=O [SPR206] (X1-T[Dap][Dab][Dab][dF]L[Dab][Dab]T; lactam 3-C (inferred))
- AUC0–∞ ([5]; iv): 20400 ng·h/mL
- C max ([5]; iv): 5300 ng/mL
- total CL ([5]; iv): 5.0 L/h
- pharmacokinetic profile in a Phase 1 study [5]: dose-proportional
- tolerability in a Phase 1 study [5]: well tolerated
- AUC0-8 vs eGFR regression, Coefficient (95% CI) [6]: −0.0063 (−0.0083, –0.0044)
- AUC0-8 vs eGFR regression, Intercept [6]: 3.5
- AUC0-last vs eGFR regression, Coefficient (95% CI) [6]: −0.0147 (−0.0168, –0.0125)
- AUC0-last vs eGFR regression, Intercept [6]: 4.5
- AUC0-∞ vs eGFR regression, Coefficient (95% CI) [6]: −0.0161 (−0.0190, –0.0131)
- AUC0-∞ vs eGFR regression, Intercept [6]: 4.6
- C max vs eGFR regression, Coefficient (95% CI) [6]: −0.0018 (−0.0040, 0.0005)
- C max vs eGFR regression, Intercept [6]: 2.0
- CL vs eGFR regression, Coefficient (95% CI) [6]: 0.0172 (0.0148, 0.0196)
- CL vs eGFR regression, Intercept [6]: 0.1
- AUC0–last greater than healthy subjects ([7]; human): 131%
- CL lower than healthy subjects ([7]; human): 75%
- time of peak plasma concentration (end of infusion) ([7]; human): 1 h
- AUC(0-t) ([7]; human, AUC0–8, LS GM (SE)): 21800 ng·h/mL
- AUC(0-t) ([7]; human, AUC0−8, LS GM (SE)): 17300 ng·h/mL
- Cmax ([7]; human, C max, LS GM (SE)): 5900 ng/mL
- Cmax ([7]; human, iv, C max, geometric mean (CV %)): 5900 ng/mL
- Cmax ([7]; human, mean peak concentration (C max)): ~6500 ng/mL
- AUC0–last LS GMR vs healthy subjects, range [7]: 1.39-3.39
- AUC0–∞ LS GMR vs healthy subjects, range [7]: 1.39-4.09
- AUC0−8, LS GMR (90% CI) [7]: 0.59 (0.52, 0.67)
- C max LS GMR vs healthy subjects, range [7]: 1.07-1.14
- CL LS GMR vs healthy subjects, range [7]: 0.71-0.24
- mean AUC0–last greater in subjects with RI vs healthy subjects [7]: 39-239%
- mean AUC0–last lower, dialyzed vs nondialyzed [7]: 51%
- mean plasma CL lower vs healthy subjects [7]: 29-76%
- deaths, treatment-related serious AEs, TEAEs leading to study discontinuation ([8]; all cohorts): No deaths, treatment-related serious AEs, or TEAEs leading to study discontinuation were reported
- TEAE headache, overall incidence ([8]; in vivo): 13.5%
- TEAE paresthesia, overall incidence ([8]; in vivo): 8.1%
- clinical laboratory results, ECG findings, physical examination ([8]; in vivo): No clinically significant abnormalities
- relation of the two serious (severe) TEAEs to study drug ([8]; in vivo): unrelated to study drug
- serum creatinine levels from screening through follow-up ([8]; in vivo): remained stable
- subjects whose TEAEs were mild ([8]; in vivo): 19 (51.4%) subjects (%)
- subjects with at least one TEAE ([8]; in vivo): 23 (62.2%) subjects (%)
- subjects with moderate TEAEs (infusion site phlebitis, drug hypersensitivity) leading to study drug discontinuation ([8]; in vivo): 5.4%
- subjects with treatment-related AEs ([8]; in vivo): 13 (35.1%) subjects (%)
- treatment-related adverse events, severity ([8]; in vivo): Mostly mild but no serious treatment-related adverse events were reported
- TEAE oral paresthesia, overall incidence ([8]; in vivo, po): 8.1%
- kidney cell cytotoxicity compared with polymyxin B [9]: lower kidney cell cytotoxicity
- Protein binding [10]: ≤ 12.8%
- AUC0–8 [11]: 20100 ng·h/mL
- C max [11]: 4400 ng/mL
- mean CLR as % of total CL ([12]; human): 24.6%
- time up to which urine concentrations were quantifiable [12]: up to 36 h
- time within which SPR206 was excreted in urine [12]: ≤ 12 h
- kidney exposure compared with polymyxin B [13]: lower kidney exposure
